{
  "source": "paper PMC8745223",
  "about": "“Novel 1,3,5-Triazinyl Aminobenzenesulfonamides Incorporating Aminoalcohol, Aminochalcone and Aminostilbene Structural Motifs as Potent Anti-VRE Agents, and Carbonic Anhydrases I, II, VII, IX, and XII Inhibitors” (International Journal of Molecular Sciences, 2021)",
  "key": {"[1]": {"test_system": "T1, E. faecalis ATCC 29212 (EF)", "T1 construct": "ATCC 29212", "assay": "microbe, parasite or virus in culture", "design": "broth microdilution MIC in BHI, Alamar Blue read-out, 37 °C", "conditions": "Enterococcus faecalis, ATCC29212, 24 h", "procedure": "(§1) The inhibition activity against enterococci was evaluated by the microtitration broth method according to the Clinical and Laboratory Standards Institute with some modifications. The compounds were dissolved in DMSO and serially diluted in Brain Hearth Infusion (BHI) to reach concentrations 256–2 µg/mL. […] The experiment was repeated at least three times. All the investigated compounds were tested on their anti-staphylococcal activity against three clinical isolates of methicillin-resistant Staphylococcus aureus (MRSA) and S. aureus ATCC 29213 as the reference and quality control strain. […] All the compounds were tested against Enterococcus faecalis ATCC 29212 as the reference strain and three isolates from American crows of vanA-carrying vancomycin-resistant E. faecalis (VRE), and the activities, expressed as minimum inhibitory concentrations (MICs), are listed in Table 3."}, "hCA VII [2]": {"target": "T2, hCA VII (Homo sapiens, UniProt P43166)", "T2 construct": "gene CA7; recombinant", "T2 sequence (P43166 whole entry)": "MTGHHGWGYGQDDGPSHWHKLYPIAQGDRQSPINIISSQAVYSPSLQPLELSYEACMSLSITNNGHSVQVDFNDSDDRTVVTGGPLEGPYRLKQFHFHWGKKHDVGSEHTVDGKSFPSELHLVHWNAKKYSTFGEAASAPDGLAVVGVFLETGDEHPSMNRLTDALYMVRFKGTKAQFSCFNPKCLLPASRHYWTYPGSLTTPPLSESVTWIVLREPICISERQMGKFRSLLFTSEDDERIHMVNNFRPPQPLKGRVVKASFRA", "assay": "biochemical", "design": "stopped-flow CO2 hydration assay, phenol red indicator at 557 nm, 15 min preincubation with inhibitor", "procedure": "(§2) AnSX.18MV-R Applied Photophysics stopped-flow instrument (Applied Photophysics, Leatherhead, UK) has been used for assaying the CA catalyzed CO2 hydration activity. Phenol red (at a concentration of 0.2 mM) has been used as an indicator, working at the absorbance maximum of 557 nm, with 20 mM Hepes (pH 7.5) as a buffer and 20 mM Na2SO4 (for maintaining constant the ionic strength), following the CA-catalyzed CO2 hydration reaction for a period of 10–100 s. The CO2 concentrations ranged from 1.7 to 17 mM for the determination of the kinetic parameters and inhibition constants. For each inhibitor, at least six traces of the initial 5–10% of the reaction were used for determining the initial velocity. The uncatalyzed rates were determined in the same manner and were subtracted from the total observed rates. Stock solutions of the inhibitor (0.1 mM) were prepared in distilled-deionized water, and dilutions up to 0.005 nM were done thereafter with the assay buffer. Inhibitor and enzyme solutions were preincubated together for 15 min at room temperature prior to assay in order to allow for the formation of the E–I complex. The inhibition constants were obtained by non-linear least-squares methods using PRISM 3 and the ChengPrusoff equation, as reported earlier, and represent the mean from at least three different determinations. All CA isoforms were recombinant ones and were prepared as reported earlier. Errors in the range of 5–10% of the reported value (Mean from three different assays, by stopped-flow technique). The presence of aminobenzenesulfonamide structural moiety in the structure of target compounds 1–44 can cause inhibition activity in these compounds against human carbonic anhydrases. The inhibition of physiologically relevant hCA I and hCA II can lead to various undesirable side effects. On the other hand, the inhibition of tumor-associated isoenzymes hCA IX and hCA XII could be a great benefit in tumor treatment. Inhibition of isoenzyme hCA VII, which is presented mostly in the brain, can be a new approach for the treatment of epilepsy or chronic neuropathic pain [42, 43]. Compounds 1–44 were evaluated as potential inhibitors of hCA I, hCA II, hCA VII, hCA IX, and hCA XII. The inhibition activities against individual hCAs were determined by methodology based on stopped-flow assay. For completeness, Table 2 also includes the previously published inhibition activities of compounds 2, 3, 5–12 and 18–19. Values of KIs were compared with clinically used sulfonamides as standards—AAZ (acetazolamide), BRZ (brinzolamide), DCP (dichlorphenamide), DZA (dorzolamide), EZA (ethoxzolamide), MZA (methazolamide), and IND (indisulam; canceled in clinical trials)."}, "hCA IX": {"target": "T3, hCA IX (Homo sapiens, UniProt Q16790)", "T3 construct": "gene CA9; recombinant", "assay": "biochemical", "design": "stopped-flow CO2 hydration assay, phenol red indicator at 557 nm, 15 min preincubation with inhibitor", "procedure": "as §2"}, "hCA II [3]": {"target": "T4, hCA II (Homo sapiens, UniProt P00918)", "T4 construct": "gene CA2; recombinant", "assay": "biochemical", "design": "stopped-flow CO2 hydration assay, phenol red indicator at 557 nm, 15 min preincubation with inhibitor", "procedure": "as §2"}, "hCA I [4]": {"target": "T5, hCA I (Homo sapiens, UniProt P00915)", "T5 construct": "gene CA1; recombinant", "T5 sequence (P00915 2-261)": "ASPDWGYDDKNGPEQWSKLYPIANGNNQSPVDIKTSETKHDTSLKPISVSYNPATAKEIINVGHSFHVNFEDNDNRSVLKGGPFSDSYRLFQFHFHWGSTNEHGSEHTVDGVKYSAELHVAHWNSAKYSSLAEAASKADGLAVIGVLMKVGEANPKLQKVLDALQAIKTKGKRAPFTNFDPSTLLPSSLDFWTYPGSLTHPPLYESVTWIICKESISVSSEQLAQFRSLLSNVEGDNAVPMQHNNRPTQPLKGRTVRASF", "assay": "biochemical", "design": "stopped-flow CO2 hydration assay, phenol red indicator at 557 nm, 15 min preincubation with inhibitor", "procedure": "as §2"}, "[5]": {"test_system": "T6, Enterococcus faecalis VRE 368", "T6 construct": "VRE 368 (vanA clinical isolate)", "assay": "organism not typed", "design": "broth microdilution MIC in BHI, Alamar Blue read-out, 37 °C", "conditions": "24 h", "procedure": "as §1"}, "[6]": {"test_system": "T7, Enterococcus faecalis VRE 342 B", "T7 construct": "VRE 342 B (vanA clinical isolate)", "assay": "organism not typed", "design": "broth microdilution MIC in BHI, Alamar Blue read-out, 37 °C", "conditions": "24 h", "procedure": "as §1"}, "[7]": {"test_system": "T8, Enterococcus faecalis VRE 725 B", "T8 construct": "VRE 725B (vanA clinical isolate)", "assay": "organism not typed", "design": "broth microdilution MIC in BHI, Alamar Blue read-out, 37 °C", "conditions": "24 h", "procedure": "as §1"}, "hCA VII [8]": {"target": "T2, hCA VII", "assay": "stopped-flow CO2 hydration assay", "type": "biochemical", "procedure,_shortened": "(§3)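 A stopped-flow method tracked CO2 hydration by recombinant human carbonic anhydrase for 10–100 s, using 0.2 mM phenol red (557 nm), 20 mM Hepes pH 7.5, 20 mM Na2SO4 and 1.7–17 mM CO2. Before the assay, enzyme and inhibitor (diluted to 0.005 nM in buffer) were preincubated for 15 min at room temperature. Initial rates came from at least six traces after subtraction of uncatalysed rates, and each value is the mean of three or more determinations. Ki was obtained by non-linear least-squares fitting with the Cheng–Prusoff equation.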"}, "[9]": {"test_system": "T6, Enterococcus faecalis VRE 368", "assay": "organism not typed", "design": "broth microdilution MIC in BHI, Alamar Blue read-out, 37 °C", "conditions": "24 h", "procedure": "(§4) The inhibition activity against enterococci was evaluated by the microtitration broth method according to the Clinical and Laboratory Standards Institute with some modifications. The compounds were dissolved in DMSO and serially diluted in Brain Hearth Infusion (BHI) to reach concentrations 256–2 µg/mL. […] The experiment was repeated at least three times. All the investigated compounds were tested on their anti-staphylococcal activity against three clinical isolates of methicillin-resistant Staphylococcus aureus (MRSA) and S. aureus ATCC 29213 as the reference and quality control strain.", "remark": "listed apart in the source"}, "[10]": {"test_system": "T7, Enterococcus faecalis VRE 342 B", "assay": "organism not typed", "design": "broth microdilution MIC in BHI, Alamar Blue read-out, 37 °C", "conditions": "24 h", "procedure": "as §4", "remark": "listed apart in the source"}, "[11]": {"assay": "stopped-flow CO2 hydration assay", "type": "biochemical, Homo sapiens", "conditions": "read-out: KI (nM) ^a / hCA I", "procedure,_shortened": "as §3"}, "hCA I [12]": {"target": "T5, hCA I", "assay": "stopped-flow CO2 hydration assay", "type": "biochemical", "procedure,_shortened": "as §3"}, "hCA II [13]": {"target": "T4, hCA II", "assay": "stopped-flow CO2 hydration assay", "type": "biochemical", "procedure,_shortened": "as §3"}, "[14]": {"test_system": "T1, E. faecalis ATCC 29212 (EF)", "assay": "microbe, parasite or virus in culture", "design": "broth microdilution MIC in BHI, Alamar Blue read-out, 37 °C", "conditions": "Enterococcus faecalis, ATCC29212, 24 h", "procedure": "as §4", "remark": "listed apart in the source"}},
  "data": [
    {"smiles": "NS(=O)(=O)c1ccc(CNc2nc(NCC(O)CO)nc(Nc3ccc(C(=O)/C=C/c4ccc(O)cc4)cc3)n2)cc1", "note": "(stereo not drawn) [compound 28, 28]", "values": [
      {"measurement": "MIC", "setting": "[1]", "value": "> 444", "unit": "µM"},
      {"measurement": "Ki", "setting": "hCA VII [2]", "value": 594, "unit": "nM"},
      {"measurement": "Ki", "setting": "hCA IX", "value": 8460, "unit": "nM"},
      {"measurement": "Ki", "setting": "hCA II [3]", "value": 184, "unit": "nM"},
      {"measurement": "Ki", "setting": "hCA I [4]", "value": 8220, "unit": "nM"},
      {"measurement": "MIC", "setting": "[5]", "value": "> 444", "unit": "µM"},
      {"measurement": "MIC", "setting": "[6]", "value": "> 444", "unit": "µM"},
      {"measurement": "MIC", "setting": "[7]", "value": "> 444", "unit": "µM"}
    ]},
    {"smiles": "NS(=O)(=O)c1ccc(CNc2nc(NCCCO)nc(Nc3ccc(C(=O)/C=C/c4cccc(O)c4)cc3)n2)cc1", "note": "[compound 15, 15]", "values": [
      {"measurement": "Ki", "setting": "hCA VII [8]", "value": 25.9, "unit": "nM"},
      {"measurement": "MIC", "setting": "[9]", "value": 111, "unit": "µM"},
      {"measurement": "MIC", "setting": "[10]", "value": 222, "unit": "µM"},
      {"measurement": "Ki", "setting": "[11]", "value": "> 10000", "unit": "nM"},
      {"measurement": "Ki", "setting": "hCA I [12]", "value": "> 10000", "unit": "nM"},
      {"measurement": "MIC", "setting": "[7]", "value": 111, "unit": "µM"},
      {"measurement": "Ki", "setting": "hCA II [13]", "value": 3020, "unit": "nM"},
      {"measurement": "MIC", "setting": "[14]", "value": 222, "unit": "µM"}
    ]},
    {"smiles": "NS(=O)(=O)c1ccc(CCNc2nc(Nc3ccc(O)cc3)nc(Nc3ccc(C(=O)/C=C/c4ccccc4)cc3)n2)cc1", "note": "[compound 21, (E)-4-[2-({4-[(4-Cinnamoylphenyl)amino]-6-[(4-hydroxyphenyl)amino]-1,3,5-triazin-2-yl}amino)ethyl]benzenesulfonamide]", "values": [
      {"measurement": "Ki", "setting": "hCA VII [8]", "value": 810, "unit": "nM"},
      {"measurement": "MIC", "setting": "[9]", "value": 26.3, "unit": "µM"},
      {"measurement": "MIC", "setting": "[10]", "value": 26.3, "unit": "µM"},
      {"measurement": "Ki", "setting": "[11]", "value": "> 10000", "unit": "nM"},
      {"measurement": "Ki", "setting": "hCA I [12]", "value": "> 10000", "unit": "nM"},
      {"measurement": "MIC", "setting": "[7]", "value": 26.3, "unit": "µM"},
      {"measurement": "Ki", "setting": "hCA II [13]", "value": 3160, "unit": "nM"},
      {"measurement": "MIC", "setting": "[14]", "value": 26.3, "unit": "µM"}
    ]}
  ]
}
